Experimental data from patent publication US10793522B2, “Sulfonamides as inhibitors of the uptake of extracellular citrate” (Boehringer Ingelheim International GmbH, priority 2016, dated 2020).
pIC50: −log10 of the molar value.

The compounds below were run against hSLC13A5 (Homo sapiens, UniProt Q86YT5) (assay: HepG2/14C-citrate uptake assay). Settings: HepG2 cells endogenously expressing hSLC13A5; Cytostar-T; 14C-citrate ~1.8 μM; incubation over night.
Type: cell-based
Set-up: HepG2 cells endogenously express hSLC13A5 transporter which is responsible for the uptake of citrate into these cells; endogenous in cells; host or cells: HepG2
Description: (4) HepG2/^14C-Citrate Uptake Assay
HepG2 cells endogenously expressing hSLC13A5 were obtained from the Wistar Institute (Knowles et al., Science 1980, 209, 497-499).
HepG2 cells endogenously express hSLC13A5 transporter which is responsible for the uptake of citrate into these cells. […] The uptake of ^14C-citrate into HepG2 cells is monitored using the Cytostar-T assay. This assay format is based on the imported radioactive citrate brought into proximity with the scintillant contained within the base of the plate by virtue of the biological processes within the cells. The radioactive decay is converted to a light signal based on the integration of the scintillation matrix into the assay plate.
Method: ^14C-Citrate Uptake Assay
Starting from 10 mM stock solutions in 100% DMSO, compounds are diluted in pure DMSO using the appropriate dilution steps. Prior to the uptake assay, 400 μL assay medium+4.8 μL compound solution (or pure DMSO for non-inhibited control wells) are mixed (final DMSO concentration in the assay: 1% (v/v)) ^14C-citrate working solution (volumes required per 96-well):
The HepG2 cells are cultivated in cell culture medium (EMEM+10% fetal calf serum+1×NEAA and 10 mM L-Glutamin) For the assay, the medium of the confluent cultures is discarded and the cells are washed with DPBS w/o Mg^2+ w/o Ca^2+. The cells are detached by the addition of 1.0 mL 2× Trypsin in DPBS w/o Mg^2+ w/o Ca^2+ with 7.5 mM EDTA per 75 cm^2 culture flask for up to 3 minutes at 37° C. and resuspended in 10 mL cell culture medium. Following cell counting, 100,000 cells/well are seeded in a volume of 200 μL into Cytostar-T Scintillating 96-well microplates. After overnight incubation in a humid cell culture incubator at 37° C., 5% CO2, the cell culture medium is carefully aspirated and the cells are incubated with 200 μL prewarmed (37° C.) assay medium (50% DMEM+50% Ham's F-12+15 mM HEPES (pH 7.4) (medium contains 15.5 m M D(+)-glucose) per well for at least 1 h prior to the experiment.
Immediately prior to uptake assay, the assay medium is carefully removed and 100 μL test compound dilution is added to each well (n=3).
Following a 20 min incubation at 37° C. in the cell culture incubator, 20 μL of ^14C-citrate working solution is added to each well (final volume per well: 120 μL; final ^14C-citrate concentration ˜1.8 μM/well)).
After incubation over night at 37° C. in the cell culture incubator, the plates are sealed on the top using a transparent plastic foil and on the bottom using a white plastic foil. Following the sealing, the plate is placed into the TopCount NXT HTS and the signal is recorded.
The IC50 values of the compounds are calculated in IDBS XLfit by sigmoidal dose-response (variable slope).

Chain of hSLC13A5 (Q86YT5 whole entry): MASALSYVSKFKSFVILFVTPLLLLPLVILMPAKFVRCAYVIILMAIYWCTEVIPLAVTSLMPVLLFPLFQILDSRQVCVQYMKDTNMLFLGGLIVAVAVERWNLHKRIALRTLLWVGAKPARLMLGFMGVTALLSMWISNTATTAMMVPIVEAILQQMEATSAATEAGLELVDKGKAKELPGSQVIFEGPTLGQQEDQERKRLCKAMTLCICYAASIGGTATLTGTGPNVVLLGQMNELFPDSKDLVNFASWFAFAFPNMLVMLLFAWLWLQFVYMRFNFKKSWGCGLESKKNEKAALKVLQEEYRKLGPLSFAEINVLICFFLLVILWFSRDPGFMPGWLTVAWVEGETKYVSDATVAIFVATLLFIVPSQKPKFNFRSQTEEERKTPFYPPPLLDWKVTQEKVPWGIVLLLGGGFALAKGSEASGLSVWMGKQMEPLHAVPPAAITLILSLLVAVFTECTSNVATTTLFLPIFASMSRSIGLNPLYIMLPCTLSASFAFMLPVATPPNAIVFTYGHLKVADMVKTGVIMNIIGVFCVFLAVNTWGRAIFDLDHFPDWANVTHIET

pIC50 | Compound
6.63 | O=C(NCc1ccc(F)cn1)C1CCN(S(=O)(=O)c2cc(Cl)cc(Cl)c2)CC1 [(I-20)]
6.95 | Cc1cnc(CNC(=O)C2CCN(S(=O)(=O)c3cc(Cl)cc(Cl)c3)CC2)s1 [(I-27)]
7.00 | CCOc1cc(Cl)cc(S(=O)(=O)N2CCC(C(=O)NCc3nccs3)CC2)c1 [(I-49)]
6.83 | Cc1cc(Br)cc(S(=O)(=O)N2CCC(C(=O)NCc3ccccn3)CC2)c1 [(I-61)]
7.13 | N#Cc1ccc(CNC(=O)C2CCN(S(=O)(=O)c3cc(Cl)cc(Cl)c3)CC2)cc1 [Example (I-1)]

Continued, compound first:

Compound | pIC50
O=C(NCc1ccccc1F)C1CCN(S(=O)(=O)c2cc(Cl)cc(Cl)c2)CC1 [(I-2)] | 7.46
O=C(NCc1ccc(Cl)cc1)C1CCN(S(=O)(=O)c2cc(Cl)cc(Cl)c2)CC1 [(I-5)] | 7.66
O=C(NCc1ccc(F)cc1)C1CCN(S(=O)(=O)c2cc(Cl)cc(Cl)c2)CC1 [(I-10)] | 7.62
O=C(NCc1ccccn1)C1CCN(S(=O)(=O)c2cc(Cl)cc(Cl)c2)CC1 [(I-11)] | 6.34
Cc1ccc(CNC(=O)C2CCN(S(=O)(=O)c3cc(Cl)cc(Cl)c3)CC2)nc1 [(I-15)] | 6.82
